Source: patent publication US20060127317A1, “Nasallly applicable pharmaceutical preparation and the production thereof” (priority 2002, published 2006)

System: ciliated epithelium of the trachea of chicken embryos
Assay: standard test for examining ciliary function (ciliary frequency of tracheal ciliated epithelium tissue pieces)
Format: cell-based
Settings: orienting tests; compared with results of table 2
Text: In a standard test for examining ciliary function, a conventional preparation for nasal administration having a phosphate/citrate buffer and benzalkonium chloride as preservative was compared in each case with a preparation of the invention having malic acid as buffer and benzalkonium chloride as preservative.
Pieces of tissue from ciliated epithelium of the trachea of chicken embryos are employed in the tests on which the comparison is based, reference being made for details of the tests to S. G. Romejn et al., Int. J. of Pharmac. 135 (1996) 137-145 and van De Donk et al., Rhinology, 20 (1982) 81-87.
The self-cleaning of the nasal mucosa is then simulated by washing out the respective solutions and adding Ringer's solution for 45 min.
After exposure for 15 min, the ciliary frequency is reduced distinctly less by the exemplary solutions with malic acid buffer than by the reference solutions. The self-cleaning of the nasal mucosa is then simulated by washing out the test solutions and adding Ringer's solution for 45 min. A distinctly better recovery of the ciliary beating force, which extends to more than ¾ of the initial beating force (of 100%), is achieved thereby with the exemplary solutions with malic acid buffer. […]

## calcitonin [calcitonin (from salmon)]
  reduction in ciliary activity and regeneration of the cilia (result in words): similar

## O=C(O)c1cc(=O)c2c(OCC(O)COc3cccc4oc(C(=O)O)cc(=O)c34)cccc2o1 [cromoglicic acid]
  reduction in ciliary activity and regeneration of the cilia (result in words): similar
